Results: BindingDB's records for PubMed 11408556 (Astrazeneca Pharmaceuticals, 2001)
“And” between values parts separate entries of the source, which are not always exact repeats. Identical values can stand only once.

Biological target: Substance-P receptor (Homo sapiens, UniProt P25103)
Sequence (P25103 whole entry): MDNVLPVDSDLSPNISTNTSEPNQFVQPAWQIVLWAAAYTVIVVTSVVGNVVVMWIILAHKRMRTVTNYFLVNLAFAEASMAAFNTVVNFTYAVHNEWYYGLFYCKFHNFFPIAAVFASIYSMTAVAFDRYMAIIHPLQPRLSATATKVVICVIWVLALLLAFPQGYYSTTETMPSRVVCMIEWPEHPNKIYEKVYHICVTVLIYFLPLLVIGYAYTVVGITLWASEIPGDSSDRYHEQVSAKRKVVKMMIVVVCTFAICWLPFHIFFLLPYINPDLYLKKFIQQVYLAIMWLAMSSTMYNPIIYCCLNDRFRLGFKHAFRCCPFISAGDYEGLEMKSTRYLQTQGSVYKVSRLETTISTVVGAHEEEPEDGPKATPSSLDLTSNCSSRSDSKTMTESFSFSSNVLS

Ki: 0.61 nM and 0.12 nM
SMILES: CN(C[C@@H](CCN1CCC(c2ccccc2[S+](C)[O-])CC1)c1ccc(Cl)c(Cl)c1)C(=O)c1cc(C#N)cc2ccccc12 (stereo partly specified)
